Data on five molecules can be found in US20170198363A1, “COMPOSITIONS AND METHODS FOR DETECTION OF SMALL MOLECULES” (COLORADO STATE UNIVERSITY RESEARCH FOUNDATION, priority 2015, published 2017).

The target of one data set is T1, degron-G-PRO1-V (Saccharomyces cerevisiae, UniProt P0CY08).
T1 construct: expressed in transfected cells; host or cells: S. cerevisiae strain PJ69-4a transformed with a p16C (p416CYC) plasmid
Description: HIS3 reporter growth assay, strain PJ69-4a. The data set is classed as cell-based, yeast. The following applies: HIS3 reporter strain PJ69-4a.

Another data set has as its system yeast. Put plainly: Progesterone toxicity to yeast cells.
In the next data set the test system is plant cells. Put plainly: Progesterone toxicity to plant cells (protoplasts).
Data set [1] deals with plant biosensor (G-DIG1-V-Matα2). Put plainly: Induction of the plant biosensor by steroids. It is filed as in vivo, Arabidopsis thaliana. The settings on record: transgenic Arabidopsis.
Data set [2] is described as follows: Progesterone biosensor luciferase assay in plant protoplasts. The following applies: 25 μM progesterone, L77F mutation in the Gal4 DBD. It is filed as cell-based.
For data set [3] the following is noted: cited from earlier work.
For data set [4] the following is noted: cited from earlier work. The source holds these as a separate data set.
Data set [5] is described as follows: PRO0 binding of progesterone.

As for `CC(=O)[C@H]1CC[C@H]2[C@@H]3CCC4=CC(=O)CC[C@]4(C)[C@H]3CC[C@]12C` [Progesterone, progesterone], at degron-G-PRO1-V, the “stimulation of growth of degron-G-PRO1-V” value is on record as “stimulated”. The “level at which toxic, leading to substantial cell death” value in the data set on yeast is at least 100 µM. Further, in the data set on plant cells, the “concentration that seems to be toxic to the plant cells” value amounted to 250 µM.
As for `C[C@H]1O[C@@H](O[C@H]2[C@@H](O)C[C@H](O[C@H]3[C@@H](O)C[C@H](O[C@H]4CC[C@@]5(C)[C@H](CC[C@@H]6[C@@H]5C[C@@H](O)[C@]5(C)[C@@H](C7=CC(=O)OC7)CC[C@]65O)C4)O[C@@H]3C)O[C@@H]2C)C[C@H](O)[C@@H]1O` [digoxin], the “induction of the plant biosensor” value in data set [1] is recorded as “capable of inducing”.

B1: PRO2: progesterone binding sensor protein, SEQ ID NO:17, tested as TF-biosensor in plant protoplasts (protein)
chain: MNAKEIVVHSLRLLENGDARGWSDLFHPEGVLEFPYAPPGHKTRFEGRETIWAHMRLFPEYVTVRFTDVQFYETADPDLAIGEFHGDGVLTASGGMLAFDFIAVWRTRDGQILQYRVFYNPLRELEALGGVEAAAKIVQGAGSLE
Regarding B1, the “increase in luciferase expression over background levels” value in data set [2] was around 3 fold.

B2: DIG10.3 (protein)
chain: MNAKEIVVHSLRLLENGDARGWSDLFHPEGVLEYPYAPPGHKTRFEGRETIWAHMRLFPEYVTVRFTDVQFYETADPDLAIGEFHGDGVLTASGGKLAYDYIAVWRTRDGQILLYRVFFNPLRVLEALGGVEAAAKIVQGAGSLE
Regarding B2, in data set [3], the affinity for digoxin result is given as “picomolar”. The affinity for digoxigenin result in data set [4] is on record as “picomolar”.

B3: PRO0: progesterone binder from three rationally designed binding site mutations in DIG0; SEQ ID NO:13 (protein)
chain: MNAKEIVVHSLRLLENGDARGWSDLFHPEGVLEFPYAPPGHKTRFEGRETIWAHMRLFPEYVTVRFTDVQFYETADPDLAIGEFHGDGVLTASGGKLAFDFIAVWRTRDGQILLYRVFFNPLRVLEALGGVEAAAKIVQGAGSLE
Take B3: the affinity for progesterone result in data set [5] is listed as “nanomolar”.
